Measured values as given in patent US20200222400A1, “METHODS FOR THE TREATMENT OF NEUROLOGICAL DISORDERS” (Yumanity Therapeutics, Inc., priority 2019, published 2020).

Assays:
Type in all cases: cell-based
[1] = system: human iPSC-derived neurons harboring the alpha-synuclein A53T mutation; experiment: Neuron survival assay, iPSC-derived neurons harboring alpha-synuclein A53T mutation; settings: 100 nM and 30 nM, relative to DMSO in A53T neurons
Protocol: Human control and patient-derived trans-differentiated neurons were transfected with an RFP reporter driven by the human MAP2 promoter (MAP2-mApple) following the protocol for rat primary neurons as described above with the following exceptions: lipofection was carried out for approximately 1 h, and the final media replacement was with BrainPhys™ media supplemented with BDNF, GNDF, cAMP, ascorbic acid, and laminin.
(§1) Transfected neuronal cultures were imaged at 12-24 h intervals for the indicated number of days by robotic microscopy. Fluorescence images were acquired with a Nikon Eclipse Ti microscope equipped with a motorized stage, 20× extra-long working distance (ELWD) objective, and an Andor Zyla cMOS camera. During image acquisition, microplates were enclosed in an on-stage environmental chamber controlling temperature, CO2, and humidity (Okolab). Images were processed and analyzed with custom-made scripts in R and ImageJ software. The lifetimes of individual neurons were determined by tracking fluorescently-labeled neurons in ImageJ. Neuronal death was determined to occur upon incidence of RFP signal loss or rupture of cell body. Cox proportional hazards analysis was used to generate cumulative hazard plots and determine the risk of neuron death. Log-rank test was used to determine statistical significance of survival curve divergence between neuron cohorts.

[2] = system: rat cortical neurons transfected with alpha-synuclein A53T; experiment: Neurite degeneration assay
Protocol: Rat primary cortical neurons cultured in 96-well plates (Greiner Bio-One) were co-transfected with a fluorescence reporter plasmid (encoding mKate2) and empty or alpha-synuclein-A53T overexpression plasmids by lipofection at 5-6 div (days in vitro). LIPOFECTAMINE® 2000 transfection reagent (Thermo Fisher) (0.5 μl/well) was diluted in NEUROBASAL® media (Thermo Fisher) and incubated for 5-10 min. The LIPOFECTAMINE®/NEUROBASAL® mixture was then added dropwise to a plasmid cocktail diluted in NEUROBASAL® media, and incubated for approximately 40 min. During this time, conditioned media on the neurons was replaced with media containing 1× kynurenic Acid (Sigma-Aldrich) in NEUROBASAL® media (NBKY). LIPOFECTAMINE®/DNA complex solutions were subsequently added dropwise to neurons in the NBKY media in the 96-well plate. Lipofection was carried out for 30-40 min in a standard cell culture incubator (37° C., 5% CO2). Neurons were then washed with NEUROBASAL® media, and 50% conditioned/50% fresh NEUROBASAL® media containing B-27 supplement and GlutaMax™ (Thermo Fisher) (NBM) was applied to the cultures.
Transfected rat cortical neuron cultures were treated with DMSO or CAY10566 compound 4-6 h post-transfection. […] Neurite lengths of transfected neurons were tracked by an RFP reporter, mKate2, and measured by NeuroTrack™ Software Module (Essen Bioscience). […]

[3] = system: A53T α-synuclein transfected human iPSC-derived neurons; experiment: Neuron survival assay, A53T α-synuclein transfected human iPSC-derived neurons; settings: all tested concentrations, 3 μM to 0.3 μM, relative to DMSO
Protocol: as §1
A model of α-synuclein toxicity utilizing transient transfection into human iPSC-derived neurons was developed. […] This model was utilized to evaluate the role of SCD in α-synuclein-dependent neuronal toxicity. Human iPSC-derived neurons were transfected with a construct encoding A53T α-synuclein or an empty vector control. […]

Cc1nnc(-c2ccc(N3CCC(Oc4cc(F)ccc4Cl)CC3)nn2)o1 [CAY10566]
risk of neuron death [1]: significantly reduced | neurite degeneration at highest concentrations ([2]; 10 nM and 3 nM): complete rescue | neurite degeneration ([2]; titration, tracked every 6 h for 7 d, relative to DMSO): concentration-dependent decrease in neurite degeneration | risk of neuron death [3]: significantly reduced
